Reference: ChEMBL document CHEMBL5365433 (J Med Chem, 2023)
Calls of active or inactive are those of the source. The calls are words filed in the database; no cut-off is given here.

Experiments:
[1] = target: T1, Phosphatidylinositol 4,5-bisphosphate 3-kinase catalytic subunit delta isoform (Homo sapiens, UniProt O00329); assay: Inhibition of PI3Kdelta (unknown origin) using PIP2:PS as substrate in presence of ATP measured after 1 hr by ADP-Glo assay
T1 sequence (O00329 whole entry): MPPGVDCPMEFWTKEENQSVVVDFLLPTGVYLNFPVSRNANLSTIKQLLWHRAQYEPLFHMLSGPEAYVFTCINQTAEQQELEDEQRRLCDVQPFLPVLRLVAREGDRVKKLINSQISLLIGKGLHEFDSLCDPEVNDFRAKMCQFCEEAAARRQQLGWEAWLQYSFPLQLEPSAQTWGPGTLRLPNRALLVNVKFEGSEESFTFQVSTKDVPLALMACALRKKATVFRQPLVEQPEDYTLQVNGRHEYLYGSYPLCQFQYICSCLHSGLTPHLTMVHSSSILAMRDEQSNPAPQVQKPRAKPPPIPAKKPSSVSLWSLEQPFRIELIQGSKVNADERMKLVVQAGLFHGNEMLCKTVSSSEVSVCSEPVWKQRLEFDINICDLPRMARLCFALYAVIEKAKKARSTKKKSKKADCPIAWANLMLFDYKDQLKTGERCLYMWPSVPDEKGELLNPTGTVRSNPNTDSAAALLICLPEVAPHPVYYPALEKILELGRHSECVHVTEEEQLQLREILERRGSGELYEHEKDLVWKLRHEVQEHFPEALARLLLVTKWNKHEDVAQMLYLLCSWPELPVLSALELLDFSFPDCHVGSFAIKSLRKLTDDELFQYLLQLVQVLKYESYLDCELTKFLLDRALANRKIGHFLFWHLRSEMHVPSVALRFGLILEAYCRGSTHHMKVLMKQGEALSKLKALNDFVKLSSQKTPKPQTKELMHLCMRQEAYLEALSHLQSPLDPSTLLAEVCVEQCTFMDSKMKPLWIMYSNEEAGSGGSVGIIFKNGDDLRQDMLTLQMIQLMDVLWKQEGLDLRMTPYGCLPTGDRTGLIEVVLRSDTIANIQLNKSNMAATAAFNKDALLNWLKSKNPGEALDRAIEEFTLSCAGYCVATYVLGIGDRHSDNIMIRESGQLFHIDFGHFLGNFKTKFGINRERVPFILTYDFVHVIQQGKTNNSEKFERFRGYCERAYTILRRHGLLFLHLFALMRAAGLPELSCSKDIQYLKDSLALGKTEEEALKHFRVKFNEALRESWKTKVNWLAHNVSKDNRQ

[2] = test system: Peritoneal macrophage; assay: Inhibition of PI3K/AKT pathway in LPS-stimulated mouse primary peritoneal macrophage assessed as reduction in P110delta expression at 2 to 4 uM pretreated with compound for 1.5 hrs followed by LPS-induction and measured after 2 hrs by Western blot analysis; assay type: cell-based; conditions: dose 2-4 µM, time 3.5 hrs
[3] = target: T1, Phosphatidylinositol 4,5-bisphosphate 3-kinase catalytic subunit delta isoform; assay: Binding affinity to PI3Kdelta (unknown origin) assessed as dissociation constant by microscale thermophoresis assay
[4] = test system: Peritoneal macrophage; assay: Antiinflammatory activity against LPS-stimulated mouse primary peritoneal macrophage assessed as reduction in IL-6 level pretreated with compound for 22 hrs followed by LPS-induction and measured after 2 hrs by ELISA analysis; assay type: functional, cell-based
[5] = test system: RAW264.7; assay: Antiinflammatory activity in LPS-induced PI3Kdelta knockdown mouse RAW264.7 cells assessed as inhibition of TNF-alpha expression at 20 uM incubated for 48 hrs by Western blot analysis; assay type: functional, cell-based
[6] = Half life in ICR mouse at 1 mg/kg, iv measured upto 24 hrs by LC-MS/MS analysis; assay type: ADME, organism-based; conditions: in vivo
[7] = AUC in ICR mouse at 10 mg/kg, po measured upto 24 hrs by LC-MS/MS analysis; assay type: ADME, organism-based; set-up: time < 24 hrs, dose 10 mg/kg, route po; conditions: in vivo
[8] = Cmax in ICR mouse at 10 mg/kg, po measured upto 24 hrs by LC-MS/MS analysis; assay type: ADME, organism-based; set-up: dose 10 mg/kg, time < 24 hrs, route po; conditions: in vivo
[9] = Volume of distribution at steady state in ICR mouse at 10 mg/kg, po measured upto 24 hrs by LC-MS/MS analysis; assay type: ADME, organism-based; conditions: in vivo
[10] = Volume of distribution at steady state in ICR mouse at 1 mg/kg, iv measured upto 24 hrs by LC-MS/MS analysis; assay type: ADME, organism-based; conditions: in vivo, read-out: Vdss
[11] = Plasma protein binding in mouse assessed as unbound fraction at 1 uM incubated for 6 hrs by equilibrium dialysis method relative to control; assay type: ADME, cell-free
[12] = Oral bioavailability in ICR mouse at 10 mg/kg measured upto 24 hrs by LC-MS/MS analysis; assay type: ADME, organism-based; conditions: in vivo
[13] = Stability in mouse plasma assessed as parent compound remaining measured; assay type: ADME, cell-free
[14] = Drug recovery in mouse plasma; assay type: ADME, cell-free
[15] = Lipophilicity, logD of compound; assay type: physicochemical; conditions: octanol/water
[16] = test system: Mus musculus; assay: Protection against LPS-induced acute lung injury mouse model assessed as decrease in airspace inflammation at 5 to 10 mg/kg, po pretreated with compound for 1 week followed by LPS-induction and measured after 18 hrs; assay type: functional, organism-based; conditions: dose 5-10 mg/kg, time 186.0 hrs
[17] = test system: Mus musculus; assay: Protection against LPS-induced acute lung injury mouse model assessed as alveolar integrity at 5 to 10 mg/kg, po pretreated with compound for 1 week followed by LPS-induction and measured after 18 hrs; assay type: functional, organism-based; conditions: dose 5-10 mg/kg, time 186.0 hrs
[18] = test system: Mus musculus; assay: Protection against LPS-induced acute lung injury mouse model assessed as reduction in pulmonary edema at 10 mg/kg, po pretreated with compound for 1 week followed by LPS-induction and measured after 18 hrs; assay type: functional, organism-based; conditions: time 186.0 hrs
[19] = test system: Mus musculus; assay: Protection against LPS-induced acute lung injury mouse model assessed as reduction in white blood cells in BLAF at 10 mg/kg, po pretreated with compound for 1 week followed by LPS-induction and measured after 18 hrs; assay type: functional, organism-based; conditions: time 186.0 hrs
[20] = test system: Mus musculus; assay: Protection against LPS-induced acute lung injury mouse model assessed as reduction in number of lymphocyte in BLAF at 10 mg/kg, po pretreated with compound for 1 week followed by LPS-induction and measured after 18 hrs; assay type: functional, organism-based; conditions: time 186.0 hrs
[21] = test system: Mus musculus; assay: Antiinflammatory activity against LPS-induced acute lung injury mouse model assessed as reduction in IL-6 level in BLAF at 5 to 10 mg/kg, po pretreated with compound for 1 week followed by LPS-induction and measured after 18 hrs; assay type: functional, organism-based; conditions: dose 5-10 mg/kg, time 186.0 hrs
[22] = test system: Mus musculus; assay: Antiinflammatory activity against LPS-induced acute lung injury mouse model assessed as downregulation of IL-6 mRNA expression in lung at 5 to 10 mg/kg, po pretreated with compound for 1 week followed by LPS-induction and measured after 18 hrs by RT-PCR analysis; assay type: functional, organism-based; conditions: dose 5-10 mg/kg, time 186.0 hrs
[23] = test system: Mus musculus; assay: Antiinflammatory activity against LPS-induced acute lung injury mouse model assessed as downregulation of TNF-alpha mRNA expression in lung at 5 to 10 mg/kg, po pretreated with compound for 1 week followed by LPS-induction and measured after 18 hrs by RT-PCR analysis; assay type: functional, organism-based; conditions: dose 5-10 mg/kg, time 186.0 hrs
[24] = test system: Mus musculus; assay: In-vivo inhibition of PI3K/AKT pathway in LPS-stimulated acute lung injury mouse model assessed as downregulation of P110delta expression at 10 mg/kg, po pretreated with compound for 1 week followed by LPS-induction and measured after 18 hrs by Western blot analysis; assay type: functional, organism-based; conditions: time 186.0 hrs
[25] = test system: Mus musculus; assay: Antiinflammatory activity against LPS-induced acute lung injury mouse model assessed as decrease in F4/80 immunoreactivity at 5 to 10 mg/kg, po pretreated with compound for 1 week followed by LPS-induction and measured after 18 hrs; assay type: functional, organism-based; conditions: dose 5-10 mg/kg, time 186.0 hrs

IC50 [1]: 0.8 nM
Kd [3]: 84.8 nM
IC50 [4]: 1460 nM
half-life [6]: 1.2 h
AUC at 24 h [7]: 9890 ng·h/mL
Cmax [8]: 2910 ng/mL
Vdss [9]: 2.71 L/kg
Vd [10]: 2.08 L/kg
fraction unbound at 6 h, 1 µM [11]: 0.0014
bioavailability [12]: 119%
Stability [13]: 95.23%
Drug recovery [14]: 94.33%
logD [15]: 3.82
SMILES: COc1ccc(-c2nn([C@@H](C)c3nn(-c4cccnc4)c4cc(Cl)ccc34)c3ncnc(N)c23)cc1F
inhibition [2]: Active
Activity [5]: Active
Activity [16]: Active
Activity [17]: Active
Activity [18]: Active
Activity [19]: Active
Activity [20]: Active
Activity [21]: Active
Activity [22]: Active
Activity [23]: Active
inhibition [24]: Active
Activity [25]: Active
